ChEMBL document CHEMBL1201862, “PubChem BioAssay data set” (2004)
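Results reflect a 48-hour exposure of cells in 96-well plates to compound at five concentrations. The concentration for 50% growth inhibition is given as GI50.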 Activity calls are given as the source filed them. Cut-off read from the data, not from the text of the source: active = GI50 up to about 1.1 µM and inactive = higher. Where a SMILES comes first, the peptide text is derived from it. [ ]: non-standard residue; d: D form. The star is where a group is joined. NMeF = CN[CH](Cc1ccccc1)C(=O)O; NMeV = CN[CH](C(=O)O)C(C)C; Boc = CC(C)(C)OC(=O)*; OBn = c1ccc(CO*)cc1

Key:
Experiment in all cases: inhibition of tumour cell growth, NCI panel, 48 h
LOX IMVI = tested on: LOX IMVI
HT-29 = tested on: HT-29
HCT-116 = tested on: HCT-116
UACC-62 = tested on: UACC-62
NCI-H460 = tested on: NCI-H460
786-0 = tested on: 786-0
ACHN = tested on: ACHN
OVCAR-3 = tested on: OVCAR-3
RPMI-8226 = tested on: RPMI-8226
SF-295 = tested on: SF-295
NCI-H23 = tested on: NCI-H23
SW-620 = tested on: SW-620
IGROV-1 = tested on: IGROV-1
SK-MEL-28 = tested on: SK-MEL-28
UO-31 = tested on: UO-31
HOP-62 = tested on: HOP-62

Measured: GI50

COc1ccc(NC(=O)CC2SC(Nc3ccc(Cl)cc3C)=NC2=O)c([N+](=O)[O-])c1 (stereo not drawn)
inactive: LOX IMVI > 100 µM | HT-29 > 100 µM | HCT-116 > 100 µM | UACC-62 > 100 µM | NCI-H460 > 100 µM | 786-0 > 100 µM | ACHN > 100 µM | OVCAR-3 > 100 µM | RPMI-8226 > 100 µM | SF-295 > 100 µM | NCI-H23 > 100 µM | SW-620 > 100 µM | IGROV-1 > 100 µM | SK-MEL-28 > 100 µM | UO-31 > 100 µM

c1ccc(CNn2nnc3ccccc32)cc1
inactive: LOX IMVI > 100 µM | HT-29 > 100 µM | UACC-62 > 100 µM | NCI-H460 > 100 µM | 786-0 > 100 µM | ACHN > 100 µM | OVCAR-3 > 100 µM | RPMI-8226 > 100 µM | SF-295 > 100 µM | NCI-H23 > 100 µM | SW-620 > 100 µM | IGROV-1 > 100 µM | SK-MEL-28 > 100 µM | UO-31 > 100 µM | HOP-62 > 100 µM

COc1ccc([C@@H]2CC(=O)NCCCNCCCCNCCCN2)cc1
inactive: HT-29 > 100 µM | HCT-116 > 100 µM | UACC-62 > 100 µM | NCI-H460 > 100 µM | 786-0 > 100 µM | ACHN > 100 µM | RPMI-8226 > 100 µM | SF-295 > 100 µM | NCI-H23 > 100 µM | SW-620 > 100 µM | IGROV-1 > 100 µM | SK-MEL-28 > 100 µM | UO-31 > 100 µM | HOP-62 > 100 µM

[O-][n+]1c2c([n+]([O-])c3ccccc31)CCCCCCCCCC2
inactive: LOX IMVI > 100 µM | HT-29 > 100 µM | HCT-116 > 100 µM | UACC-62 > 100 µM | 786-0 > 100 µM | ACHN > 100 µM | OVCAR-3 > 100 µM | RPMI-8226 > 100 µM | SF-295 > 100 µM | NCI-H23 > 100 µM | SW-620 > 100 µM | IGROV-1 > 100 µM | SK-MEL-28 > 100 µM | UO-31 > 100 µM

O=P1(Oc2ccccc2)C(c2ccccc2)C(c2ccccc2)=NN1c1ccccc1 (stereo not drawn)
inactive: LOX IMVI 17.3 µM | HT-29 18.3 µM | HCT-116 17.2 µM | UACC-62 18.2 µM | NCI-H460 24.2 µM | 786-0 33.7 µM | ACHN 24.5 µM | OVCAR-3 19.7 µM | SF-295 28.2 µM | NCI-H23 22.8 µM | SW-620 21.5 µM | IGROV-1 26.2 µM | SK-MEL-28 25.6 µM | HOP-62 24.6 µM

CC(=O)O[C@]12CCCC1C1(O)C(O)CCCC12 (stereo partly drawn)
inactive: LOX IMVI > 100 µM | HT-29 > 100 µM | HCT-116 > 100 µM | UACC-62 > 100 µM | NCI-H460 > 100 µM | 786-0 > 100 µM | ACHN > 100 µM | RPMI-8226 > 100 µM | SF-295 > 100 µM | NCI-H23 > 100 µM | SW-620 > 100 µM | SK-MEL-28 > 100 µM | UO-31 > 100 µM | HOP-62 > 100 µM

O=C1C2c3[nH]c4ccccc4c3C3CCCCC3C2C(=O)N1c1ccccc1 (stereo not drawn)
inactive: LOX IMVI > 100 µM | HT-29 > 100 µM | UACC-62 > 100 µM | NCI-H460 > 100 µM | 786-0 34.2 µM | ACHN 99.3 µM | OVCAR-3 73.6 µM | RPMI-8226 > 100 µM | SF-295 48.9 µM | NCI-H23 > 100 µM | SW-620 > 100 µM | IGROV-1 72.1 µM | SK-MEL-28 > 100 µM | UO-31 > 100 µM

Clc1cc(Cl)c2n[se]nc2c1
inactive: LOX IMVI 69.7 µM | HT-29 > 100 µM | HCT-116 > 100 µM | UACC-62 > 100 µM | NCI-H460 > 100 µM | 786-0 > 100 µM | ACHN > 100 µM | RPMI-8226 > 100 µM | SF-295 > 100 µM | NCI-H23 > 100 µM | SW-620 > 100 µM | IGROV-1 > 100 µM | SK-MEL-28 > 100 µM | UO-31 > 100 µM | HOP-62 > 100 µM

Cc1nc(-c2cccnc2)sc1C(=O)/C=C/c1ccc(Cl)cc1Cl
inactive: LOX IMVI 95.3 µM | HT-29 > 100 µM | UACC-62 83.9 µM | NCI-H460 > 100 µM | 786-0 > 100 µM | ACHN > 100 µM | OVCAR-3 > 100 µM | RPMI-8226 31.5 µM | SF-295 > 100 µM | NCI-H23 > 100 µM | SW-620 71.9 µM | IGROV-1 > 100 µM | SK-MEL-28 > 100 µM | UO-31 > 100 µM | HOP-62 > 100 µM

O=C(OC1CCC(=C2SCCCS2)[C@H]1C1SCCCS1)c1ccccc1 (stereo partly drawn)
inactive: LOX IMVI > 100 µM | HT-29 > 100 µM | HCT-116 88.3 µM | UACC-62 45.4 µM | NCI-H460 > 100 µM | 786-0 > 100 µM | ACHN > 100 µM | OVCAR-3 > 100 µM | RPMI-8226 86.3 µM | SF-295 > 100 µM | NCI-H23 > 100 µM | SW-620 > 100 µM | IGROV-1 > 100 µM | UO-31 24.5 µM | HOP-62 > 100 µM

COC1=C2C[C@H](O)C(C)C[C@@]2(OC)OC1=O (stereo partly drawn)
inactive: LOX IMVI > 100 µM | HT-29 > 100 µM | HCT-116 > 100 µM | UACC-62 > 100 µM | NCI-H460 > 100 µM | 786-0 > 100 µM | OVCAR-3 > 100 µM | RPMI-8226 > 100 µM | SF-295 > 100 µM | NCI-H23 > 100 µM | SW-620 > 100 µM | IGROV-1 > 100 µM | SK-MEL-28 > 100 µM | UO-31 > 100 µM | HOP-62 > 100 µM

O=c1ncccn1C1OC(CO)C(O)C1O (stereo not drawn)
inactive: LOX IMVI > 100 µM | HT-29 > 100 µM | HCT-116 > 100 µM | UACC-62 > 100 µM | NCI-H460 > 100 µM | 786-0 > 100 µM | ACHN > 100 µM | RPMI-8226 > 100 µM | NCI-H23 > 100 µM | SW-620 > 100 µM | IGROV-1 > 100 µM | SK-MEL-28 > 100 µM | UO-31 > 100 µM

CC(C)C(NC(=O)OC(C)(C)C)C(=O)N(C)C(Cc1ccccc1)C(=O)N(C)C(C(=O)N(C)C(C(=O)OCc1ccccc1)C(C)C)C(C)C (stereo not drawn) (Boc-V[NMeF][NMeV][NMeV]-OBn; configuration not given here)
inactive: LOX IMVI > 100 µM | HT-29 20.2 µM | HCT-116 66.5 µM | UACC-62 > 100 µM | NCI-H460 > 100 µM | 786-0 > 100 µM | ACHN 26.4 µM | OVCAR-3 > 100 µM | RPMI-8226 10.3 µM | SF-295 51.2 µM | NCI-H23 > 100 µM | SW-620 > 100 µM | IGROV-1 > 100 µM | UO-31 > 100 µM | HOP-62 > 100 µM
